# According to PMC6345161 (Journal of medicinal chemistry, 2018):
# How the values were obtained:
# MRSA (ATCC BAA-44) = test: MRSA proliferation assay; type: cell-based, Staphylococcus aureus
# E. coli GroEL = E. coli GroEL (Escherichia coli, UniProt P0A6F5); test: Isothermal titration calorimetry binding to GroEL; conditions: for T∆S: 20°C (293.15 K); for Stoichiometry n, GroELmonomer : Molecule: single-site binding model; for ∆G: calculated with Gibbs equation at 20°C
# S. aureus (ATCC 25923) = test: S. aureus proliferation assay; type: cell-based, Staphylococcus aureus
# [1] = system: MRSA strain (ATCC BAA-44); test: 12-day serial passage MRSA resistance assay; type: cell-based, Staphylococcus aureus; conditions: for MRSA resistance generation: 12 passages over 12 days
# [2] = target: T1, native malate dehydrogenase (Sus scrofa, UniProt P00346); test: Native MDH enzymatic reporter counter-screen; type: biochemical
# T1 sequence (P00346 25-338): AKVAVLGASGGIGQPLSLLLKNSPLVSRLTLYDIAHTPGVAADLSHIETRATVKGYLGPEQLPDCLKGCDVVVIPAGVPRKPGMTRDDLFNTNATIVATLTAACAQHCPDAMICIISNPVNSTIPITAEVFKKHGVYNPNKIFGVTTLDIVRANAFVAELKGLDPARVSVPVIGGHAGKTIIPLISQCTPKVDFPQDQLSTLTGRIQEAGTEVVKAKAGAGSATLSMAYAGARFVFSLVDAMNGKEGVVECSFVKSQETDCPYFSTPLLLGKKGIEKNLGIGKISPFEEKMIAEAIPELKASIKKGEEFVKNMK
# native rhodanese = target: T2, native rhodanese (Bos taurus, UniProt P00586); test: Native Rho enzymatic reporter counter-screen; type: biochemical
# T2 sequence (P00586 2-297 limits assumed): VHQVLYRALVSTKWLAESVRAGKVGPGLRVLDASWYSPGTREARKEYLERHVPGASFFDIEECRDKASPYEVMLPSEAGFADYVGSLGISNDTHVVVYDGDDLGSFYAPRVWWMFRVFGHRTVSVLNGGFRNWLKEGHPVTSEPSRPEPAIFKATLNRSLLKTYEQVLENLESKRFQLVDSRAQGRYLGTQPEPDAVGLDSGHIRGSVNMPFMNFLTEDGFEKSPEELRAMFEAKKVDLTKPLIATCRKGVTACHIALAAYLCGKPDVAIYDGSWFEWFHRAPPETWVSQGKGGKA
# ESKAPE pathogens = conditions: cited from earlier work
# Chain of E. coli GroEL (P0A6F5 2-548): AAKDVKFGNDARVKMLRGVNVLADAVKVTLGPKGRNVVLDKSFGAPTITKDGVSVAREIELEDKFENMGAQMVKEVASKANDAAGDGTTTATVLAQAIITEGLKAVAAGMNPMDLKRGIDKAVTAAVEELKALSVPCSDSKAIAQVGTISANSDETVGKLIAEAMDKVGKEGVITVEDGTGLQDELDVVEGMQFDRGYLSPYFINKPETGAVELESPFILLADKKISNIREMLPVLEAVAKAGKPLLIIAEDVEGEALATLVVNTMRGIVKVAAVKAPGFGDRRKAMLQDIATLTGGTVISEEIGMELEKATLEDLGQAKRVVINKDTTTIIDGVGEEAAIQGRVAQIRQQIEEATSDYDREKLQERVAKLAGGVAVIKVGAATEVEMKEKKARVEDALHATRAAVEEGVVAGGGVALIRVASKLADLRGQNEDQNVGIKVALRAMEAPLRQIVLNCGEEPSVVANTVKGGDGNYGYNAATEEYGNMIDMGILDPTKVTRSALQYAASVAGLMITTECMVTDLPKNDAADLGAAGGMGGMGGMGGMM
smiles,measurement,setting,value
O=S(=O)(Nc1ccc(-c2nc3cc(NS(=O)(=O)c4ccc(Cl)cc4)ccc3o2)cc1)c1ccc(Cl)cc1 [2c-p],inhibition of MRSA proliferation,MRSA (ATCC BAA-44),most potent and selective inhibitors of MRSA proliferation
NCc1ccc(S(=O)(=O)Nc2ccc3oc(-c4ccc(NS(=O)(=O)c5ccc(Cl)s5)cc4)nc3c2)cc1 [20L],"Stoichiometry n, Molecule : GroELmonomer","E. coli GroEL; ITC, 20°C",1.67 ± 0.39
same,∆H,"E. coli GroEL; ITC, 20°C",-8.30 ± 0.52 kcal/mol
same,∆S,"E. coli GroEL; ITC, 20°C",0.003 ± 0.002 kcal/molK
same,T∆S,E. coli GroEL; ITC,0.84 ± 0.55 kcal/mol
same,"Stoichiometry n, GroELmonomer : Molecule","E. coli GroEL; ITC, 20°C",0.6 ± 0.14
same,"Stoichiometry n, Molecule : GroELoligomer","E. coli GroEL; ITC, 20°C, molecules per GroEL tetradecamer",23.3 ± 5.4
same,∆G,E. coli GroEL,-9.14 ± 0.06 kcal/mol
same,inhibition of S. aureus proliferation,S. aureus (ATCC 25923),only moderately active
same,inhibition of MRSA proliferation,MRSA (ATCC BAA-44),only moderately active
NCc1ccc(S(=O)(=O)Nc2ccc(-c3nc4cc(NS(=O)(=O)c5ccc(Cl)s5)ccc4o3)cc2)cc1 [20R],"Stoichiometry n, Molecule : GroELmonomer","E. coli GroEL; ITC, 20°C",1.30 ± 0.27
same,∆H,"E. coli GroEL; ITC, 20°C",-9.78 ± 0.80 kcal/mol
same,∆S,"E. coli GroEL; ITC, 20°C",0.001 ± 0.003 kcal/molK
same,T∆S,E. coli GroEL; ITC,0.20 ± 0.82 kcal/mol
same,"Stoichiometry n, GroELmonomer : Molecule","E. coli GroEL; ITC, 20°C",0.77 ± 0.16
same,∆G,E. coli GroEL,-9.98 ± 0.26 kcal/mol
same,inhibition of S. aureus proliferation,S. aureus (ATCC 25923),only moderately active
same,MRSA resistance generation,[1],unable to generate resistance
same,inhibition of MRSA proliferation,MRSA (ATCC BAA-44),only moderately active
O=[N+]([O-])c1cc(S(=O)(=O)Nc2ccc(-c3nc4cc(NS(=O)(=O)c5ccc(Cl)s5)ccc4o3)cc2)ccc1Cl [28R],inhibition of native malate dehydrogenase,[2],only to a minor extent
same,MRSA resistance generation,[1],rapidly developed resistance
same,sensitivity of resistant MRSA after culture without inhibitor,"[1]; two days without inhibitors (24 h agar, 24 h liquid)",regained sensitivity
same,inhibition of native rhodanese,native rhodanese,only to a minor extent
Cc1ccc(S(=O)(=O)Nc2ccc(-c3nc4ccc(NS(=O)(=O)c5ccc(C)cc5)cc4[nH]3)cc2)cc1 [compound 1],antibacterial effects against ESKAPE pathogens,ESKAPE pathogens,no antibacterial effects
O=S(=O)(Nc1ccc(-c2nc3cc(NS(=O)(=O)c4cccs4)ccc3o2)cc1)c1cccs1 [compound 6],inhibition of MRSA proliferation,MRSA (ATCC BAA-44),most potent and selective inhibitors of MRSA proliferation
"CN[C@H](CC(C)C)C(=O)N[C@H]1C(=O)N[C@@H](CC(N)=O)C(=O)N[C@H]2C(=O)N[C@H]3C(=O)N[C@H](C(=O)N[C@H](C(=O)O)c4cc(O)cc(O)c4-c4cc3ccc4O)[C@H](O)c3ccc(c(Cl)c3)Oc3cc2cc(c3O[C@@H]2O[C@H](CO)[C@@H](O)[C@H](O)[C@H]2O[C@H]2C[C@](C)(N)[C@H](O)[C@H](C)O2)Oc2ccc(cc2Cl)[C@H]1O [vancomycin, reference compound]",MRSA resistance generation,[1],retained sensitivity
